Drawing on paper PMC3049939 (Chemical science (Royal Society of Chemistry : 2010), 2011), this text covers Km for five molecules.

This test relates to porcine liver esterase (PLE). The test is described as follows: fluorogenic hydrolysis, Michaelis-Menten fit. In kind it is biochemical, Sus scrofa. Conditions: HEPES pH 7.4, 23 ± 2 °C, DMSO up to 1.5% v/v.

With `CC(=O)OCOc1ccc2nc3ccc(=O)cc-3oc2c1` [compound 9, Resorufin acetoxymethyl ether], the Km amounted to 21 µM.
Consider `CC(=O)Oc1ccc2c(c1)Oc1cc(OC(C)=O)ccc1C21OC(=O)c2ccccc21` [2a, fluorescein diacetate], for which the Km (two ester groups per molecule) came to 11 µM.
On to `CC(=O)Oc1ccc2nc3ccc(=O)cc-3oc2c1` [compound 10, resorufin acetate], for which the Km was 16 µM.
As to Tokyo Green acetate [compound 7], the Km came to 12 µM.
On the same count and under the same terms, then “Tokyo green acetoxymethyl ether [compound 6]”, with 13 µM.
